These results are taken from ChEMBL document CHEMBL2016551, “Synthesis and SAR studies of novel heteroaryl fused tetracyclic indole-diamide compounds: potent allosteric inhibitors of the hepatitis C virus NS5B polymerase” (Bioorg Med Chem Lett, 2012).

One may read the IC50 as the concentration needed to halve the response being measured. Low readings indicate higher potency, high ones lower potency. In general, EC50 refers to the midpoint of the concentration-response curve. High values mean lower potency in that assay, low ones higher potency in that assay. As a reminder, the CC50 is the concentration giving 50% cytotoxicity. Lower therefore signals harm at low concentration. What is called half-life is the time needed for the level to fall by half in the phase considered. The bioavailability is the share of a dose that reaches the circulation, judged against a reference dose that is usually intravenous. Higher therefore signals much systemic uptake. By AUC is commonly meant concentration integrated over time. Low readings indicate less exposure, high ones more exposure. By clearance is commonly meant the volume of plasma or blood freed of the substance per unit of time. A higher clearance goes with a high capacity for elimination.

Data set [1] deals with RNA-directed RNA polymerase (Hepacivirus hominis, UniProt O39930, P495L). Briefly: Inhibition of Hepatitis C virus NS5B RNA-dependent RNA polymerase P495L mutant.
Data set [2] deals with Hepatitis C virus. Briefly: Antiviral activity against Hepatitis C virus genotype 1a infected in human HuH7 cells by luciferase reporter gene analysis. The data set is classed as functional, organism-based, Hepacivirus hominis. The settings on record: subtype 1a, Huh-7. On the technique in general: A reporter such as luciferase makes a cellular process visible.
Data set [3] can be described thus: Cytotoxicity against human HuH7 cells. It counts as cell-based. To be noted: Huh-7 cells.
Data set [4] is described as follows: Inhibition of Hepatitis C virus NS5B RNA-dependent RNA polymerase. More on the design: species or system Hepacivirus hominis.
For data set [5], the system named is Hepatitis C virus. Briefly: Antiviral activity against Hepatitis C virus genotype 1b infected in human HuH7 cells by luciferase reporter gene analysis. The data set is classed as functional, organism-based, Hepacivirus hominis. The settings on record: Huh-7.
Data set [6] in a line: Half life in rat at 2 mg/kg, iv. More on the design: dose 2 mg/kg, route intravenous. The settings on record: in vivo. The data set is classed as ADME, organism-based.
Data set [7] is described as follows: Oral bioavailability in rat. It counts as ADME, organism-based. The settings on record: in vivo.
A short description of data set [8]: AUC in rat. The data set is classed as ADME, organism-based. To be noted: plasma.
Data set [9] in a line: Clearance in rat at 2 mg/kg, iv. The settings on record: in vivo. The data set is classed as ADME, organism-based. More on the design: dose 2 mg/kg, route intravenous.

Chain of RNA-directed RNA polymerase (O39930 entry or part of it P495L): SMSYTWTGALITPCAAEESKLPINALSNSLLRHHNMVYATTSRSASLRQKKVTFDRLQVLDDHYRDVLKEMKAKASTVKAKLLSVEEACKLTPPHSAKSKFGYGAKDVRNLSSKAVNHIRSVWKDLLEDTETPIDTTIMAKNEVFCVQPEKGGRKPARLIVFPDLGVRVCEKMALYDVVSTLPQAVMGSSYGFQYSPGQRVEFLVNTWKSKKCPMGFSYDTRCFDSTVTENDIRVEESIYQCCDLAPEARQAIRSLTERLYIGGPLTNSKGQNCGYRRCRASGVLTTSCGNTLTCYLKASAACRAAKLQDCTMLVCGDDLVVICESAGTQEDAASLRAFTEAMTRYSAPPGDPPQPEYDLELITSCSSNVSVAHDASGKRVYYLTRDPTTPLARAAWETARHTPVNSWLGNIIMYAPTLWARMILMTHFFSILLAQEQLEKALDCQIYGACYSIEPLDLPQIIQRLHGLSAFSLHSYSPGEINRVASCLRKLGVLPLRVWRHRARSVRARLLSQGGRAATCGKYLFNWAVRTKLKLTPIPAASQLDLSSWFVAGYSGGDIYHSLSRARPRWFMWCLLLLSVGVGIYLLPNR

Regarding `O=C(O)/C=C/c1ccc(NC(=O)C2(NC(=O)c3ccc4c(C5CCCCC5)c5n(c4c3)CCCc3ccccc3-5)CCCC2)cc1`, the concentration for half-maximal inhibition (IC50) in [1] worked out at 3390 nM; in data set [4], 34 nM. For the same compound, the concentration for a half-maximal effect (EC50) amounted to 71 nM in the data set on Hepatitis C virus [2] and 14 nM in the data set on Hepatitis C virus [5]. The compound further showed a CC50 in [3] of 30000 nM.
As to `O=C(O)/C=C/c1ccc(NC(=O)C2(NC(=O)c3ccc4c(C5CCCCC5)c5n(c4c3)CCCc3ocnc3-5)CCCC2)cc1`, the half-inhibitory concentration (IC50) in [1] came to 5850 nM; in data set [4], 44 nM. Also, the results for the EC50 in the data set with Hepatitis C virus [2] and with Hepatitis C virus [5] were 380 nM and 78 nM, respectively.
In the case of `O=C(O)/C=C/c1ccc(NC(=O)C2(NC(=O)c3ccc4c(C5CCCCC5)c5n(c4c3)CCCc3occc3-5)CCCC2)cc1`, the values for the half-maximal inhibitory concentration (IC50) in [1] and in data set [4] were 3720 nM and 34 nM, respectively. In the data set with Hepatitis C virus [5], this compound registered an EC50 below 69 nM.
For `O=C(O)/C=C/c1ccc(NC(=O)C2(NC(=O)c3ccc4c(C5CCCCC5)c5n(c4c3)CCCc3nc[nH]c3-5)CCCC2)cc1`, the half-maximal effective concentration (EC50) in the data set with Hepatitis C virus [2] amounted to 2510 nM; in the data set on Hepatitis C virus [5], 738 nM. This compound yielded a half-maximal inhibitory concentration (IC50) in [4] of 228 nM.
Regarding `Cc1nc2c(s1)CCCn1c-2c(C2CCCCC2)c2ccc(C(=O)NC3(C(=O)Nc4ccc(/C=C/C(=O)O)cc4)CCCC3)cc21`, the IC50 in [1] was 5100 nM; in data set [4], 108 nM. Further, the values for the EC50 in the data set on Hepatitis C virus [2] and with Hepatitis C virus [5] were 4190 nM and 683 nM, respectively.
For `Nc1nc2c(s1)CCCn1c-2c(C2CCCCC2)c2ccc(C(=O)NC3(C(=O)Nc4ccc(/C=C/C(=O)O)cc4)CCCC3)cc21` the same measures were 4840 nM, 250 nM, 3780 nM and 1810 nM.
For `O=C(O)/C=C/c1ccc(NC(=O)C2(NC(=O)c3ccc4c(C5CCCCC5)c5n(c4c3)CCCc3nccnc3-5)CCCC2)cc1` the same measures were 2280 nM, 24 nM, 89 nM and 24 nM.
In the case of `O=C(O)/C=C/c1ccc(NC(=O)C2(NC(=O)c3ccc4c(C5CCCCC5)c5n(c4c3)CCCc3ncccc3-5)CCCC2)cc1`, the figures for the IC50 in data set [1] and in data set [4] were 1730 nM and 30 nM, respectively. Moreover, the half-life in data set [6] was 1 h. The bioavailability in [7] was 4%. Moreover, the area under the curve (AUC) in data set [8] amounted to 1.7 µM·h. The 50% effective concentration (EC50) in the data set on Hepatitis C virus [2] was found to be 35 nM; with Hepatitis C virus [5], 9 nM. The compound further returned a CC50 in data set [3] of 63000 nM. Moreover, in [9], the clearance was found to be 7.2 mL/min/kg.
Turning to `O=C(O)/C=C/c1ccc(NC(=O)C2(NC(=O)c3ccc4c(C5CCCCC5)c5n(c4c3)CC(=O)Nc3cccnc3-5)CCCC2)cc1`, the IC50 in data set [1] was 3100 nM; in data set [4], 24 nM. For the same compound, the bioavailability in [7] is below 1%. The values for the EC50 with Hepatitis C virus [2] and in the data set on Hepatitis C virus [5] were 39 nM and 12 nM, respectively. Further, the cytotoxic concentration (CC50) in data set [3] is 45000 nM. For the same compound, the clearance in [9] is 8.7 mL/min/kg.
Take `O=C(O)/C=C/c1ccc(NC(=O)C2(NC(=O)c3ccc4c(C5CCCCC5)c5n(c4c3)CCOc3cccnc3-5)CCCC2)cc1`: the IC50 in [1] was above 600 nM; in data set [4], 15 nM. Also, the results for the EC50 with Hepatitis C virus [2] and in the data set with Hepatitis C virus [5] were 157 nM and 22 nM, respectively.
For `O=C(O)/C=C/c1ccc(NC(=O)C2(NC(=O)c3ccc4c(C5CCCCC5)c5n(c4c3)CCOc3ncccc3-5)CCCC2)cc1` the same measures were 2800 nM, 14 nM, 28 nM and 21 nM.
